Measurements taken from US20170204187A1, “METHODS OF TREATING AND PREVENTING CANCER DRUG RESISTANCE” (Genentech, Inc., priority 2014, published 2017).
“Also recorded” adds a separate entry of the source.

Key:
Type in all cases: cell-based
LOX-IMVI VemR cell line = test: LOX-IMVI VemR resensitization to vemurafenib by FGFR antagonists (FIG. 2B); settings: FGFR antagonist 1 μM in combination with 5 μM vemurafenib
Procedure: FIG. 2A-E.|A cell line (“LOX-IMVI VemR”) was engineered to be resistant to vemurafienib. A, An image of an immunoblot of 11 cell lines probed for FGFR1 expression. B, The LOX-IMVI VemR cell line is not affected by 5 μM vemurafenib (i.e., “PLX”) as shown in the DMSO plot; however, the cell line is affected by 5 μM vemurafenib in combination with an antagonist of FGFR signalling (i.e., BGJ398, PD173074, and AP24534).
The Lox-IMVI VemR cell line was used as the model of acquired resistance in B-raf mutant melanoma. 11 cell lines were tested for FGFR1 expression using a Western blot. Of the cell lines tested, FGFR1 expression was detected in the LOX-IMVI (vemurafenib sensitive) and LOX-IMVI VemR (vemurafenib resistant) lines (FIG. 2A).

LOX-IMVI cells = test: Secreted factor rescue screen on LOX-IMVI (FIG. 23)
Excerpt: FIG. 23 A-C.|Vemurafenib resistant and sensitive cell lines can be used to determine and anticipate paths to resistance in patients. LOX-IMVI cells were rescued by FGF1, FGF2, EGF, and HGF in the screen. A, LOX-IMVI VemR cells were re-sensitized to PLX4032 by FGFR inhibition. B, Dual resistant LOX-IMVI VemR/FGFRi (i.e., resistant to vemurafenib and FGFR inhibitor) cells were re-sensitized to PLX4032 by EGFR inhibition. C, Triple resistant LOX-IMVI VemR/FGFRi/Erlotinib cells were re-sensitized to PLX4032 by MET inhibition.

[1] = system: B-raf mutant melanoma cell lines; test: Secreted factor / FGF rescue screen, melanoma lines (FIG. 1, FIG. 15B); settings: melanoma cell line, FIG. 1B
Procedure: (§1) FIG. 1A-D.|Factors secreted by tumor cells and/or the tumor microenvironment contribute to drug resistance through activation of cell-surface receptors. […] D, Secreted growth factors which promote resistance to PLX4032 reactivate MAPK and PI3K pathways. Activation of MAPK by FGF2, MAPK and AKT by HGF and AKT by NRG1 and SCF are shown in 624 MEL cells in the presence of PLX4032. Treatments were 5 μM PLX4032 for 24 hours and 50 ng·mL FGF2, HGF, NRGB1, or SCF for 10 minutes.
FIG. 15 A-C.|Screen of 10 melanoma cell lines and 10 breast cancer lines was performed to determine the role of FGF signalling in drug resistance. […] C, Summary of FGF receptors, their subfamily, and their ligands.
FGF signalling and resistance was studied in 10 HER2+ breast cancer cell lines and in 10 B-raf mutant melanoma cell lines (FIG. 15). 7 of the 10 HER2+ breast cancer cell lines were rescued by FGF2 (FIG. 15A). 8 of the 10 B-raf mutant melanoma cell lines were rescued by FGF2 (FIG. 15B). Subsequent analysis determined that 50-70% of the melanoma lines with the V600E mutation were rescued by FGF2 (n=30).

624 MEL cells = test: Immunoblot of MAPK and PI3K pathway reactivation by secreted growth factors (FIG. 1D); settings: 5 μM PLX4032 for 24 hours; 50 ng·mL factor for 10 minutes
Procedure: as §1

Compound | effect on the cell line / resensitization to vemurafenib (LOX-IMVI VemR cell line) | rescue in the secreted factor screen (LOX-IMVI cells) | rescue of tumor cells from B-raf and MEK antagonists [1] | pathway activated in the presence of PLX4032 (624 MEL cells)
Cc1ccc(C(=O)Nc2ccc(CN3CCN(C)CC3)c(C(F)(F)F)c2)cc1C#Cc1cnc2cccnn12 [AP24534] | resensitized to vemurafenib; also recorded: affected |  |  | 
CCN(CC)CCCCNc1ncc2cc(-c3cc(OC)cc(OC)c3)c(NC(=O)NC(C)(C)C)nc2n1 [PD173074, N-[2-[[4-(diethylamino)butyl]amino]-6-(3,5-dimethoxyphenyl)pyrido[2,3-d]pyrimidin-7-yl]-N′-(1,1-dimethylethyl)-urea] | resensitized to vemurafenib; also recorded: affected |  |  | 
FGF1: secreted factor, FGFR ligand |  | rescued |  | 
HGF: secreted growth factor which promotes resistance to PLX4032 |  | rescued | most broadly and potently | MAPK and AKT
SCF: secreted growth factor which promotes resistance to PLX4032 |  |  |  | AKT
